Results on 1 molecule are retold here after patent US20210346317A1, “TREATMENT OF HEMATOPOIETIC STEM CELL TRANSPLANT PATIENTS” (PRIOTHERA LIMITED, priority 2016, published 2021).

One test concerns patients undergoing HSCT. Description: Neutrophil engraftment in patients after allogeneic hematopoietic stem cell transplantation. The note with it: for neutrophil count above baseline: e.g. 2 mg KRP203/per day. It counts as in vivo. The procedure: Day 1=drug treatment commences (e.g. 2 mg KRP203/per day)
Day 2 and Day 10: Conditioning was performed as described above (e.g. Mini Seattle or RIC)
Day 11: transplantation of stem cells from an allogeneic donor is being carried out
To monitor for engraftment of donor hematopoietic stem cells in recipients, the neutrophil count is measured usually daily. The commonly accepted definition of “day of engraftment” (take) is the first of three consecutive days with a neutrophil count higher than 500 cells per microliter. A neutrophil count of higher than 500 cells per microliter is reached in the below experiment, when the probability of engraftment is 1.0 (100%) versus baseline or higher. The donor origin of these cells is normally confirmed by genomic analyses on day 30.

Test [1] concerns Recipient C57BL/6 or IDUAKI (B6.129S-Iduatm1.1Kmke/J) mice. Kind of test: Mouse model of inherited metabolic disease (IMD): HSC engraftment after mild non-myeloablative conditioning. It counts as in vivo. The text has this:
Recipient C57BL/6 or IDUAKI (B6.129S-Iduatm1.1Kmke/J) mice were conditioned with a mild non-myeloablative regimen. A limited number of 1×10E3 HSC were transplanted from congenic mice. Groups were either untreated or treated with KRP for 15 days.

Where [2] appears, read: day 56, 1×10E3 HSC from congenic mice, treated for 15 days, vs untreated group.

Take `NC(CO)(CO)CCc1ccc(Sc2cccc(OCc3ccccc3)c2)cc1Cl` [KRP203, 2-amino-2-[4-(3-benzyloxyphenylthio)-2-chlorophenyl]ethyl-propane-1,3-diol]: the “Probability of neutrophil engraftment” value is recorded as 0.00 in the test with patients undergoing HSCT (Day 0); 0.00 with patients undergoing HSCT (Day 10); 0.33 with patients undergoing HSCT (Day 11); 0.44 in the test with patients undergoing HSCT (Day 12); 0.67 in the test with patients undergoing HSCT (Day 13); 0.89 in the test on patients undergoing HSCT (Day 14). In addition, the “Probability of neutrophil engraftment” value in the test with patients undergoing HSCT (Day 15), in the test with patients undergoing HSCT (Day 16), in the test with patients undergoing HSCT (Day 17), in the test on patients undergoing HSCT (Day 18), in the test on patients undergoing HSCT (Day 19) and in the test with patients undergoing HSCT (Day 20) was 1.00 in each case. Also, the “Probability of neutrophil engraftment” value with patients undergoing HSCT (Day 21), with patients undergoing HSCT (Day 22) and with patients undergoing HSCT (Day 23) was 1.00 in each case. Besides, the “neutrophil count above baseline” value with patients undergoing HSCT (Day 11, control group 11%) came out at 33 % above baseline; with patients undergoing HSCT (Day 15, control group 48%), 100 % above baseline. In addition, in the test on patients undergoing HSCT (FIG. 1 and Table 1, patients treated with KRP203), the “speed of engraftment vs control group” value is “engrafted much faster than the control group”. Also, the “donor cells in engrafted mice” value in test [1] (setting [2]) is on record as “more donor cells than the untreated group”. Besides, the mice engrafted entry in test [1] (setting [2]) is “More mice from the KRP203 treated group engrafted”. Besides, the “engraftment (conclusion)” value in test [1] (non-myeloablative conditions, limited HSC, treatment in the peri-transplant period) was “augments engraftment”.
